One substance from patent US5726156A, “Cytokine regulatory agents and methods of use in pathologies and conditions associated with altered cytokine levels” (Trega Biosciences, Inc., priority 1995, dated 1998) can be followed below.

For assay [1], the system named is kidney (renal ischemia/reperfusion). The experiment in a line: Renal ischemia-reperfusion injury. In kind it is in vivo, rats. Also on record: RVR: unit not given here. The following applies: I/R + EX-2 (50 or 500 μg/kg iv, dose not given); 1 hr clamping, after 60 min reperfusion. Here is the method: Sprague-Dawley rats (250-300 g) were anesthetized with inactin® (120 mg/kg). After deep anesthesia was assured, the rats were cannulated in the trachea with polyethylene (PE) tubing (PE 240), jugular vein, femoral artery, bladder (PE 50 for previous 3 cannulations), and left ureter (stretched PE 50). Once cannulation was completed, a 2 cm flank incision above the left kidney was performed and the renal pelvis and vascular bundle were exposed. The tissue surrounding the left renal artery was gently dissected away from the artery. The exposed renal artery was clamped for 1 hr using a small vascular cross-over clamp. Just prior to clamping, EX-2 (50 or 500 μg/kg), ketorolac (KETO, 1 mg/kg), or vehicle was administered intravenously (iv) After 1 hr of clamping (ischemia), the clamp was gently removed with care taken to avoid damaging either the renal artery or nerves.

Assay [2] concerns morphine-induced respiratory depression. The assay is described as follows: Morphine-induced respiratory depression. In kind it is in vivo, rabbits. The following applies: 10 + 20 + 20 μg/kg/rabbit iv; end of experiment (80 min). Here is the method:
Male Shelton rabbits (3-4 kg) were restrained and fitted around the thorax, just behind the front limbs, with a respiration transducer (Model F-RCT; Grass Instruments; Quincy Ma). The transducer was connected to a grass polygraph via an EKG cable. An intravenous line was established for drug administration by cannulating the marginal ear vein using a 25 G butterfly needle.
Rabbit breathing was allowed to stabilize, then morphine sulfate (2 mg/kg in 0.5 ml saline) was administered by intravenous (iv) injection and respiratory rate and depth were monitored for 10 min. A second dose of morphine was administered, then, after 10 min, EX-2 or EX-3 (10 μg/kg in 0.5 ml saline) was administered, iv, and rabbits were monitored for 20 min. Two additional doses of EX-2 or EX-3 (20 μg/kg in 1.0 ml saline) were administered at 20 min intervals, i.e., 40 min and 60 min after the first morphine injection.
Results were calculated as the percent change from baseline values and are expressed as the difference of the mean value of the treated group minus the mean value of the control group at the end of the experiment (80 min).

The test system of assay [3] is disuse deconditioning. The experiment in a line: Disuse deconditioning (tail suspension) in rats. The format is in vivo. The following applies: 1 or 5 μg/kg IP twice daily. Here is the method:
Adult male Sprague-Dawley rats (355-365 g) were used in this study. Animals were housed individually in standard rat cages and were acclimated on a treadmill for 4 days. The next day, a baseline tail bleed was performed, followed by a maximal treadmill stress test the day after. The day following the stress test, the animals were divided into the appropriate treatment and control groups and the animals were suspended by their tails in suspension cages, which simulates weightlessness and, therefore, deconditions the animals. Another group of control animals was placed in standard rat cages with grated flooring similar to that utilized in the suspension cages. All animals were housed one per cage and supplied with food and water ad libitum. Body weights and food consumptions were measured daily. Animals received twice daily IP injections of 1 μg/kg or 5 μg/kg body weight of EX-2 (treated), or 1 ml/kg body weight of saline (control). On day 10, all animals were stress tested on the treadmill until they reached exhaustion. Data on maximum VO2 and running time were collected and compared to pre-suspension results. On day 14, all animals were sacrificed, and blood, tissues, and organs were collected for further analysis. All procedures and tests were performed blind to avoid researcher subjectivity. Statistical significance (p<0.05) between groups was evaluated by ANOVA with Student-Newman-Keuls test for multiple comparisons. All data are reported as the mean ± standard error (SE).
All of the animals were subjected to the stress tests, which measured exercise time and maximal VO2. As well, levels of the oxidative enzyme soleus citrate synthase and tibia bone density were measured.
Soleus citrate synthase was attenuated by 50%.

The test system of assay [4] is LPS-induced lethality. The experiment in a line: LPS-induced lethality (IP dosing). The format is in vivo, mice. The following applies: 11 × 300 μg/mouse IP (3.3 mg), every 4 hr; 0.6 mg LPS. Here is the method:
These experiments were performed based on information reported by Rivier etal., Endocrinology 125:2800-2805 (1989), which is incorporated herein by reference. Adult female Balb/c mice were provided food and water ad libitum. Mice were injected IP every four hr for 40 hr with 30 to 300 μg EX-2, EX-3 or EX-4 in 0.2 ml saline (treated group) or with 0.2 ml saline, alone (control group) (10 mice per group). Immediately following the first injection, 0.6 mg LPS endotoxin in 0.2 ml saline was administered to each mouse. Following LPS injection, EX-2 or saline was administered to the treated mice or the control mice, respectively, every 4 hr for 36 hr.

Assay [5] relates to LPS-induced fever. The experiment in a line: LPS-induced temperature increase (fever). The following applies: 6 hr following LPS injection. The format is in vivo, rats. Here is the method: Male Wistar rats (45-75 days old) were placed in a temperature controlled room held at 26° C., which is thermoneutral for the normal body temperature of rats, and were maintained in the room with free access to food and water for 24 hr prior to testing. On the morning of the study, rats were marked for identification and weighed. The temperature of each rat was determined by placing the animal in a regulatory cage designed to minimize stress and inserting a temperature probe (YSI probe #402) 3-5 cm into the animal's rectum. The temperature was recorded 15 sec after the reading stabilized. Measurements were repeated 1 hr later to establish a baseline temperature for each rat.
After the baseline temperatures were established, rats were injected IP with saline, IL-1β or LPS endotoxin. Rats then were injected IP with either saline (control) or various concentrations of EX-2, EX-3, or EX-4 (treated). The temperature of the rats was measured every hr for 6 hr and the inhibition by EX-2, EX-3, or EX-4 of the rise in temperature due to IL-1β or LPS was determined.
In addition, treatment with 50 or 150 μg/kg EX-2 inhibited LPS-induced fever by 45% or 52%, respectively, when measured 6 hr following LPS injection. Furthermore, treatment with 150 μg/kg EX-3 or EX-4 inhibited LPS-induced fever by 57% and 52%, respectively (Table II).

[6] abbreviates: suspended rats, stress test day 10.

Turning to “Ac-Nle-Gln-His-(D)Phe-Arg-(D)Trp-Gly-NH2 [EX-2]”, in assay [1], the GFR is reported as 0.5 ± 0.1, the RPF amounted to 2.3 ± 0.3 and the RVR is on record as 1.8 ± 0.2. Besides, the “Reduction in Morphine-induced Respiratory Depression” value in assay [2] came to 50%. In addition, in assay [3] (14 days suspension), the “% Attenuation of suspension-induced decrease, Soleus Citrate Synthase” value amounted to 50% and the “% Attenuation of suspension-induced decrease, Tibia Bone Density” value is given as 50%. Further, in assay [3] (setting [6]), the “% Attenuation of suspension-induced decrease, Exercise Time” value was found to be 44% and the “% Attenuation of suspension-induced decrease, Maximal VO2” value amounted to 80%. The “Inhibition of LPS-induced Lethality (increase in survival vs control)” value in assay [4] worked out at 83%. Moreover, the “Reduction in LPS-induced Fever” value in assay [5] (50 μg/kg IP) turned out to be 45%. For the same substance, the “Reduction in LPS-induced Fever” value in assay [5] (150 μg/kg IP) was found to be 52%.
